Measurements taken from US20220242853A1, “MODIFIED CYANINE DYES AND CONJUGATES THEREOF” (BRACCO IMAGING S.P.A., priority 2019, published 2022).

Tests used:
[1] = target: T1, human serum albumin (HSA) (Homo sapiens, UniProt P02768); test: Binding affinity to human serum albumin (absorbance peak shift or ultrafiltration method); conditions: phosphate buffer, 25° C., one of the two methods; read-out: HSA affinity (KA) (converted)
T1 construct: purchased Sigma Aldrich A9511
Protocol: Binding affinity to human serum albumin (HSA; Sigma Aldrich, A9511) was measured using two methods, according to the level of binding affinity of the compounds.
The first method, optimal for compounds which strongly interact with HSA, is based on the analysis of the absorbance spectrum peak shift after the incubation of the dye in solutions containing HSA. Briefly, the samples were incubated at a fixed concentration (1 μM) with HSA dilutions (1×10^−6-4×10^−4M), in phosphate buffer for 5 min in the spectrophotometer at 25° C. before measurements. The measure was performed at the maximum absorbance wavelength of the shifted peak.
The second method, optimal for compound with low affinity for HSA, is based on measuring the variation of the absorbance of solutions containing the dye and various concentrations of HSA after ultrafiltration. Briefly, each compound was incubated at a fixed concentration (2 μM) with HSA dilutions (1×10^−6-4×10^−4 M), in phosphate buffer. The samples were centrifuged (10,000 g for 30 min at 25° C.) in a Microcon device (10 kDa MWCO, Amicon Ultra-0.5 Centrifugal Filter Unit with Ultracel-10 membrane, Millipore) and the absorbance measurements of the filtrates were obtained with the spectrophotometer at the maximum absorbance wavelength of the fluorophore.
For both methods, the affinity constant (KA, M^−1) was calculated by fitting the raw data with the following formula:
wherein ΔA/b=Absorbance measured (b=1 cm) KRL=KA calculated by regression analysis (curve fitting) Δε·Rt calculated by regression analysis (curve fitting) [L]=Albumin concentration
In the first method, ΔA/b corresponds to the absorbance measured for each sample, whereas in the second method ΔA/b is obtained subtracting the absorbance of the control sample (dye without HSA) to the absorbance of each other sample.
However, the measurement of the affinity constant is more precise when the suitable method is used as a function of the affinity level of the compound.

[2] = test system: WM-266-4 human melanoma cells; test: Cell uptake by flow cytometry (FACS); format: cell-based
Protocol: The human melanoma cell line WM-266-4 (ATCC, CRL-1676) was used as in vitro model to assess the cell uptake of representative integrin-binding Compounds 1 and 3, based on the high expression of the integrin receptors, particularly αvβ3, on the membrane of these cells (Capasso et al., PlosOne 2014).
Adherent cells at about 70% confluence were incubated with the compounds 1 or 3 (1 μM) for 2h at 37° C. (5% CO2) in presence of Dulbecco's Modified Eagle's Medium (DMEM) supplemented with 10% FBS, 2 mM glutamine, 100 IU/mL penicillin and 100 μg/mL streptomycin. After two washing steps with PBS, cells were detached using 0.1 mM EDTA in PBS, centrifuged and suspended in buffer (PBS, 0.5% BSA, 0.1% NaN3) for flow cytometry experiments. Fluorescence Activated Cell Sorting (FACS) was used to detect the fluorescence signal within the cells, as measure of cell uptake. Samples were excited with an Argon laser and the emission detected using a 670 nm longpass filter. Values of fluorescence intensity were obtained from the histogram statistic produced by the instrument software.
The residual internalization was calculated by considering the value of fluorescence intensity in absence of the competitor as 100%.
Furthermore, to assess the effect of biological fluids on the cell uptake, parallel experiments were performed incubating the cells with a compounds of the invention in presence of human serum from male AB plasma (Sigma Aldrich, H4522) or human albumin (Sigma Aldrich, A9511). The residual internalization was calculated by considering the value of fluorescence intensity in absence of the serum as 100%. Such uptake assessment also represents an indication of the percentage of compound which is sequestered by the plasma proteins, in particular albumin, when it diffuses through the vascular compartment before reaching the tissue of interest and the particular targeted receptor.

Detroit-562 cells = test: Tumor uptake by ex vivo optical imaging, orthotopic human head and neck cancer model; format: in vivo, Balb/c nu/nu mice; conditions: ex vivo tongue, 24 hours after iv 3 nmol/mouse
Protocol: Parallel experiments were performed in an animal model of human head and neck cancer (orthotopic), using Detroit-562 cells, overexpressing in particular integrin receptor αvβ6. Briefly, the human pharyngeal carcinoma cells Detroit-562 (ATCC, CCL-138) were cultured in Eagle's Minimum Essential Medium (EMEM) supplemented with 10% Fetal Bovine Serum (FBS), 2 mM glutamine, 100 IU/mL penicillin, 100 μg/mL streptomycin. Male Balb/c nu/nu mice, 4-6 weeks of age (Charles River Laboratories), underwent orthotopic implantation in the anterior portion of the tongue of about 2.5 million cells suspended in 0.03 mL di EMEM. Mice were housed 4 per cage with food and water ad libitum. Animals were fed with VRF1 (P) sterile diet (Special Diets Services Ltd) up to the end of the acclimation period (5 days). Then, AIN-76a rodent diet irradiated (Research Diets), a special diet that reduces auto-fluorescence, was used up to the end of the experiments. Tumor growth was monitored by longitudinal assessments using a caliper up to the target size of 10-20 mm^3 (7-10 days after cell implantation).
Imaging experiments were performed using the preclinical optical system IVIS Spectrum (Perkin Elmer). Animals were intravenously injected (lateral tail vein) with 3 nmol/mouse, at 24 hours post-administration were euthanized by anesthesia overdose, and the tongues were excised for ex vivo optical imaging. […]

T1 sequence (P02768 25-609): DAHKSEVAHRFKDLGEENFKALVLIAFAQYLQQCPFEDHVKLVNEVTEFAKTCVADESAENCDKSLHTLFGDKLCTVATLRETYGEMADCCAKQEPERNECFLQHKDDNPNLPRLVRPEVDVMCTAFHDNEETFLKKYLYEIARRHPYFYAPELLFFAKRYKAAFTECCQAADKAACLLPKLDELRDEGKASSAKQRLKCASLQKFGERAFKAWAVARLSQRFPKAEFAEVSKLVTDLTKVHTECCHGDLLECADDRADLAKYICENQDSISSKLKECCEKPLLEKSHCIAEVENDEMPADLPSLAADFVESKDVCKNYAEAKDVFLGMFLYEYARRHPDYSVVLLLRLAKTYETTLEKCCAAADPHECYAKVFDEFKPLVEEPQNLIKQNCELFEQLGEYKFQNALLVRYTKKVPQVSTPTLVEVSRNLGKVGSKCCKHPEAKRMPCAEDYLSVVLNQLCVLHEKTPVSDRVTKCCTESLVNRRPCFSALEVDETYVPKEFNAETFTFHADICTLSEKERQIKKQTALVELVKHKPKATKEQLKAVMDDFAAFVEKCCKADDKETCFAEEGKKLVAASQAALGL

For `CC(CC[N+]1=C(/C=C/C=C/C=C/C=C2/N(CCCCCC(=O)NCCCC[C@@H]3NC(=O)C(Cc4ccccc4)NC(=O)[C@H](CC(=O)O)NC(=O)CNC(=O)[C@H](CCCNC(=N)N)NC3=O)c3ccc(C(=O)NCC(O)C(O)C(O)C(O)CO)cc3C2(C)C)C(C)(C)c2cc(C(=O)NCC(O)C(O)C(O)C(O)CO)ccc21)S(=O)(=O)[O-]` (some centres unmarked) [Compound 1], the Kd [1] was 159 µM, the “Residual uptake in the presence of 4% HSA” value ([2]; 1 μM, 2h at 37° C.) was 70% and the “Residual cell uptake in presence of human serum” value ([2]; 1 μM, 2h at 37° C., uptake without serum = 100%) was 80%. The “Residual uptake in the presence of c(RGDfK) as competitor” value ([2]; 100 μM c(RGDfK), uptake without competitor = 100%) was 10% and the Tumor-to-background contrast (Detroit-562 cells) was “high tumor-to-background contrast”.
